The values below come from publication PMC5855550, “Pharmacokinetic Study of Bioactive Flavonoids in the Traditional Japanese Medicine Keigairengyoto Exerting Antibacterial Effects against Staphylococcus aureus” (International Journal of Molecular Sciences, 2018).

For data set [1], the system named is RAW264.7 cells. Briefly: Macrophage culture assay: phagocytosis of FITC-conjugated S. aureus. Format: cell-based, mouse. As to conditions: for Phagocytosis relative change versus control / Phagocytosis MFI: IFN-γ 0.5 ng/mL; for Phagocytosis MFI: mean ± SEM of triplicates. As to the method:
Cells of the mouse macrophage cell line RAW264.7 (ATCC, Manassas, VA, USA) were grown in Dulbecco’s modified Eagles medium supplemented with 10% fetal bovine serum (FBS), 4.5 g/L glucose, 2 mmol/L L-glutamine, 100 U/mL penicillin, 100 µg/mL streptomycin, and 10 mmol/L HEPES. […] After 3 days’ incubation at 37 °C, culture fluids were removed and replaced by warm medium containing 30 μg/mL FITC-conjugated S. aureus. After 30 min incubation in a 5% CO2 incubator, cells were harvested using cold PBS containing 2 mmol/L EDTA, washed, and fixed for 15 min at 4 °C with phosphate buffer containing 4% paraformaldehyde (pH 7.4). FITC-positive cells were determined using a FACSaria II flow cytometer and DIVA 8.0.1 software (Becton Dickinson, San Jose, CA, USA). Phagocytic activity is expressed as the mean fluorescence intensity (MFI) from individual cells.

The nature of data set [2]: in vivo. The procedure: To specifically deconjugate glucuronides, 80 μL of plasma sample was incubated with 50 μL of β-glucuronidase solution containing 200 units/mL β-glucuronidase from Escherichia coli (Sigma-Aldrich) for 2 h at 37 °C. The deconjugation reaction was stopped by adding ethyl acetate or by refrigerating the mixture considering the following procedures. This pretreated solution was injected into the two liquid chromatography–mass spectrometry with tandem mass spectrometry (LC-MS/MS) systems after pooling with an internal standard solution of niflumic acid (Sigma-Aldrich) or atropine (Wako Pure Chemical Industries, Osaka, Japan).
For quantification of apigenin, wogonin, wogonoside, hesperetin, naringenin, liquiritigenin, genistein, and luteolin in β-glucuronidase-naive (untreated) plasma, 200 µL plasma samples were pretreated by liquid-liquid extraction using ethyl acetate. The total supernatant was collected, dried, and concentrated using a centrifugal evaporator. The dried residue was then dissolved in 60 μL of the specific HPLC mobile phase used for each analytical method, and a 10 or 20 μL volume injected into the LC-MS/MS system.
For quantification of baicalin, baicalein, and berberine in untreated plasma, 80 µL of plasma was pretreated by solid-phase extraction using Oasis HLB 96-well µElution plate (Waters, Milford, MA, USA). The methanol eluates were collected, dried, and dissolved in 60 μL of the specific HPLC mobile phase. A 10 or 20 μL volume was then injected into the LC-MS/MS system.
For quantification of glycyrrhizic acid and glycyrrhetinic acid in untreated plasma, 100 µL plasma samples were pretreated by deproteinization using methanol. The supernatant was collected, dried, and concentrated using a centrifugal evaporator. The dried residue was then dissolved in 60 μL of the specific HPLC mobile phase used for the analytical method, and a 10 μL volume injected into the LC-MS/MS system.
For quantification of wogonin, wogonoside, hesperetin, naringenin, liquiritigenin, and genistein in treated plasma, the reaction solutions after deconjugation reactions were pretreated by liquid-liquid extraction. The supernatant was dissolved in 120 μL of the specific HPLC mobile phase, and a 10 or 15 μL volume injected into the LC-MS/MS system.
For quantification of apigenin, luteolin, baicalin, baicalein, and berberine in treated plasma, the reaction solutions after deconjugation were pretreated by solid-phase extraction by the method described above, and 10 or 15 μL of the solution dissolved in 50 μL of the specific HPLC mobile phase was injected into the LC-MS/MS system.
Pharmacokinetic parameters of flavonoids and glucuronide metabolites in KRT-administrated plasma with or without β-glucuronidase treatment were analyzed by noncompartmental modeling using Phoenix WinNonlin (version 6.3, Certara L.P., St. Louis, MO, USA) to determine various pharmacokinetic constants, including Cmax, tmax, t1/2, and AUC0–last. The t1/2 was […] loge2/ke, where ke is the terminal elimination rate constant determined from at least three data points on the descending linear limb.

The target in data set [3] is T1, β-glucuronidase (Mus musculus, UniProt P12265).
T1 construct: endogenous in cells; host or cells: RAW264.7 cells (live or lysate); alternatively back-skin homogenate supernatant of naive mice (tissue)
T1 sequence (P12265 23-648): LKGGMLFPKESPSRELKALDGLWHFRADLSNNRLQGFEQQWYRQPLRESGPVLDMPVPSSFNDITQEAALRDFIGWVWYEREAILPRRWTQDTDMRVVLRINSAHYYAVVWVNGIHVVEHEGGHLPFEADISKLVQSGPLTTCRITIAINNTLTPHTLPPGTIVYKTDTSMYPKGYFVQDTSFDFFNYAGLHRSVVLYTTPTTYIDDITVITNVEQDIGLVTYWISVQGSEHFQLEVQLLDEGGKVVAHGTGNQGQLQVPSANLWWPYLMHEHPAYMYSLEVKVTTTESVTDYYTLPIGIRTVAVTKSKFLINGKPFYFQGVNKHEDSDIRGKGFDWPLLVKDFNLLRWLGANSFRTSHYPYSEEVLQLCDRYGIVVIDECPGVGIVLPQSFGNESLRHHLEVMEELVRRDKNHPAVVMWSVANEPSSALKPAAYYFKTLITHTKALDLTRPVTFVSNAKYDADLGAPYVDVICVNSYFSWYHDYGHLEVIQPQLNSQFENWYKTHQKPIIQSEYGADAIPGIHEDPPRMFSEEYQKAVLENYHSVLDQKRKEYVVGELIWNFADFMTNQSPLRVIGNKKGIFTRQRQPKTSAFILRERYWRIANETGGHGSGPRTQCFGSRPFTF
As to the kind of experiment: Conversion assay of baicalin to baicalein by macrophages, macrophage lysate and skin homogenate. Format: in vitro ADME. Conditions: baicalin 10 μmol/L; 24 h incubation; living macrophages (RAW264.7), also lysates of macrophages and skin. The procedure:
Naïve mice were sacrificed by exsanguination to obtain skin samples from the back. After shaving with an electric razor, the skin was excised and homogenized in cold PBS at 20 mg/mL. After centrifugation at 10,000× g for 20 min at 4 °C, supernatants were harvested and stored at −80 °C until use.
To examine β-glucuronidase activity in skin tissue, baicalin (final 10 μmol/L) was added as a substrate to skin homogenate in 24-well plates. Alternatively, to examine β-glucuronidase activity in macrophages, baicalin (final 10 μmol/L) was added to live RAW264.7 cells seeded at 1 × 10^5 cells/0.5 mL/well or to cell lysates in 24-well plates. After 24 h incubation in a 5% CO2 incubator, supernatants were harvested and stored at −80 °C until measurement of baicalin and baicalein by LC-MS/MS as described above.

[4] abbreviates: Exp. 1, 10 μmol/L, 3 days, control 155 ± 4.
Where [5] appears, read: Sprague-Dawley, rat, in vivo, po.
Where [6] appears, read: Sprague-Dawley, rat, in vivo, po, 2 g/kg.
[7] abbreviates: Exp. 2, 1 μmol/L, control 226 ± 12.
Setting [8] is: Exp. 2, 3 μmol/L, control 226 ± 12.
Where [9] appears, read: Exp. 2, 10 μmol/L, control 226 ± 12.
Setting [10] is: Sprague-Dawley, rat, plasma, po, 2 g/kg.

Consider `O=c1cc(-c2ccc(O)cc2)oc2cc(O)cc(O)c12` [Apigenin, apigenin], for which, in data set [1] (10 μmol/L), the “phagocytosis by macrophages (result in words)” value (“phagocytosis by macrophages” for short) is listed as “enhanced”. Moreover, in data set [1] (Exp. 1, 10 μmol/L), the “Phagocytosis relative change versus control” value is 3.3. Also, the “Phagocytosis MFI” value in data set [1] (setting [4]) is 507 ± 11. Besides, in data set [2] (setting [5]), the Tmax is on record as 10.0 h. Further, in data set [2] (setting [6]), the AUC(0-t) was determined as 0.843 ng·h/mL, the Cmax worked out at 0.14 ng/mL and the Tmax was determined as 4 h.
For `O=c1cc(-c2ccccc2)oc2cc(O)c(O)c(O)c12` [Baicalein, baicalein], in data set [1] (10 μmol/L), the “phagocytosis by macrophages” value is “enhanced”. Further, the “Phagocytosis relative change versus control” value came out at 3.4 in data set [1] (Exp. 1, 10 μmol/L); 1.0 in data set [1] (Exp. 2, 1 μmol/L); 2.0 in data set [1] (Exp. 2, 3 μmol/L); 3.8 in data set [1] (Exp. 2, 10 μmol/L). Also, the “Phagocytosis MFI” value is 530 ± 6 in data set [1] (setting [4]), 223 ± 10 in data set [1] (setting [7]), 445 ± 7 in data set [1] (setting [8]) and 866 ± 25 in data set [1] (setting [9]). Besides, the Cmax in data set [2] (Sprague-Dawley, rat, plasma, oral, 2 g/kg) was 1320 ng/mL; in data set [2] (rat plasma, no β-glucuronidase treatment, KRT 2 g/kg oral, BQL for baicalein = 125 ng/mL), “BQL ^#”; in data set [2] (rat plasma, no β-glucuronidase treatment, KRT 2 g/kg oral, BQL for baicalein = 125 ng/mL, listed as baicalein), “BQL”.
In the case of `O=c1c(-c2ccc(O)cc2)coc2cc(O)cc(O)c12` [Genistein, genistein], in data set [1] (10 μmol/L), the “phagocytosis by macrophages” value is “enhanced”. Also, the “Phagocytosis relative change versus control” value in data set [1] (Exp. 1, 10 μmol/L) was determined as 3.4. Besides, the “Phagocytosis MFI” value in data set [1] (setting [4]) is recorded as 525 ± 22. In data set [2] (setting [6]), the AUC(0-t) was 9.65 ng·h/mL, the Cmax is 0.998 ng/mL and the Tmax is 24 h. In addition, in data set [2] (β-glucuronidase-treated plasma until 6 h after KRT administration, detected at 10 and 24 h), the plasma concentration result was “below the detection limit”.
On to `CC1(C)[C@@H](O[C@H]2O[C@H](C(=O)O)[C@@H](O)[C@H](O)[C@H]2O[C@@H]2O[C@H](C(=O)O)[C@@H](O)[C@H](O)[C@H]2O)CC[C@]2(C)[C@H]3C(=O)C=C4[C@@H]5C[C@@](C)(C(=O)O)CC[C@]5(C)CC[C@@]4(C)[C@]3(C)CC[C@@H]12` [Glycyrrhizic acid, glycyrrhizic acid], for which, in data set [2] (setting [10]), the Cmax came out at 2.88 ng/mL and the Tmax was found to be 1 h.
Turning to `COc1ccc([C@@H]2CC(=O)c3c(O)cc(O)cc3O2)cc1O` [Hesperetin, hesperetin], the “phagocytosis by macrophages” value in data set [1] (10 μmol/L) is “did not”. For the same compound, the “Phagocytosis relative change versus control” value in data set [1] (Exp. 1, 10 μmol/L) was 1.2. Besides, the “Phagocytosis MFI” value in data set [1] (setting [4]) worked out at 193 ± 12. Moreover, in data set [2] (setting [10]), the AUC(0-t) was 2.83 ng·h/mL, the Cmax came to 0.644 ng/mL and the Tmax amounted to 4 h.
Take `O=C1C[C@@H](c2ccc(O)cc2)Oc2cc(O)ccc21` [Liquiritigenin, liquiritigenin]: in data set [1] (10 μmol/L), the “phagocytosis by macrophages” value is recorded as “enhanced”. For the same compound, the “Phagocytosis relative change versus control” value in data set [1] (Exp. 1, 10 μmol/L) is 1.6. Also, the “Phagocytosis MFI” value in data set [1] (setting [4]) was found to be 245 ± 4. In data set [2] (setting [10]), the AUC(0-t) is 8.68 ng·h/mL, the Cmax came to 2.11 ng/mL and the Tmax amounted to 4 h.
`O=c1cc(-c2ccc(O)c(O)c2)oc2cc(O)cc(O)c12` [Luteolin, luteolin]: the “phagocytosis by macrophages” value in data set [1] (10 μmol/L) was “enhanced”. Further, in data set [1] (Exp. 1, 10 μmol/L), the “Phagocytosis relative change versus control” value came to 2.6. For the same compound, the “Phagocytosis MFI” value in data set [1] (setting [4]) stood at 408 ± 22. Also, in data set [2] (setting [5]), the Tmax stood at 1.00 h and the t1/2 is recorded as 11.7 h. Besides, in data set [2] (setting [6]), the AUC(0-t) was determined as 21.3 ng·h/mL, the Cmax is 4.7 ng/mL and the Tmax was found to be 6 h.
For the compound `O=C1C[C@@H](c2ccc(O)cc2)Oc2cc(O)cc(O)c21` [Naringenin, naringenin], in data set [1] (10 μmol/L), the “phagocytosis by macrophages” value was “enhanced”. Further, the “Phagocytosis relative change versus control” value in data set [1] (Exp. 1, 10 μmol/L) amounted to 1.5. In data set [1] (setting [4]), the “Phagocytosis MFI” value is given as 236 ± 10. Also, in data set [2] (setting [6]), the AUC(0-t) turned out to be 9.53 ng·h/mL, the Cmax came to 1.34 ng/mL, the Tmax is 4 h and the half-life (usually how long it takes for the measured level to halve) was 181 min.
Take `COc1c(O)cc(O)c2c(=O)cc(-c3ccccc3)oc12` [Wogonin, wogonin]: in data set [1] (10 μmol/L), the “phagocytosis by macrophages” value is recorded as “enhanced”. Moreover, the “Phagocytosis relative change versus control” value in data set [1] (Exp. 1, 10 μmol/L) stood at 1.7. Further, the “Phagocytosis MFI” value in data set [1] (setting [4]) worked out at 271 ± 16. In addition, in data set [2] (setting [6]), the AUC(0-t) worked out at 71.5 ng·h/mL, the Cmax was found to be 16.3 ng/mL and the Tmax is 4 h.
Consider `O=C(O)[C@H]1O[C@@H](Oc2cc3oc(-c4ccccc4)cc(=O)c3c(O)c2O)[C@H](O)[C@@H](O)[C@@H]1O` [baicalin, baicalein 7-O-glucuronide], for which, in data set [1] (10 μmol/L), the “phagocytosis by macrophages” value was “promoted”. The “Phagocytosis relative change versus control” value worked out at 1.1 in data set [1] (Exp. 2, 1 μmol/L); 1.2 in data set [1] (Exp. 2, 3 μmol/L); 2.4 in data set [1] (Exp. 2, 10 μmol/L). In addition, the “Phagocytosis MFI” value in data set [1] (setting [7]) worked out at 238 ± 9; in data set [1] (setting [8]) it was 269 ± 10; in data set [1] (setting [9]), 531 ± 19. Moreover, the “deconjugation of baicalin to aglycone baicalein” value in data set [3] is recorded as “almost completely deconjugated to baicalein”. The compound further gave an AUC(0-t) in data set [2] (setting [6]) of 10100 ng·h/mL. The Cmax in data set [2] (setting [6]) was 1020 ng/mL. Besides, the Tmax in data set [2] (setting [6]) came out at 4 h. Further, in data set [2] (setting [6]), the half-life is 212 min.
With `COc1c(O[C@@H]2O[C@H](C(=O)O)[C@@H](O)[C@H](O)[C@H]2O)cc(O)c2c(=O)cc(-c3ccccc3)oc12` [wogonoside, wogonin 7-O-glucuronide], in data set [2] (setting [10]), the AUC(0-t) was 3400 ng·h/mL and the Tmax is 6 h.
